Results published in ChEMBL document CHEMBL5058646 (2022).

Legend:
[1] = molecular target: Serine/threonine-protein kinase ULK1 (Homo sapiens) (UniProt O75385); assay: ULK1 SGC Tm panel (DSF); conditions: Compound concentration 20.0 uM
[2] = molecular target: D(1A) dopamine receptor (Homo sapiens) (UniProt P21728); conditions: Compound concentration 10.0 uM
[3] = molecular target: Cyclin-dependent kinase-like 1 (Homo sapiens) (UniProt Q00532); assay: CDKL1 SGC Tm panel (DSF); conditions: Compound concentration 20.0 uM
[4] = molecular target: 5-hydroxytryptamine receptor 1A (Homo sapiens) (UniProt P08908); conditions: Compound concentration 10.0 uM
[5] = molecular target: Casein kinase II subunit alpha' (Homo sapiens) (UniProt P19784); assay: CSNK2A2 SGC Tm panel (DSF); conditions: Compound concentration 20.0 uM
Sequence of Casein kinase II subunit alpha' (Homo sapiens) (P19784 whole entry, looked up): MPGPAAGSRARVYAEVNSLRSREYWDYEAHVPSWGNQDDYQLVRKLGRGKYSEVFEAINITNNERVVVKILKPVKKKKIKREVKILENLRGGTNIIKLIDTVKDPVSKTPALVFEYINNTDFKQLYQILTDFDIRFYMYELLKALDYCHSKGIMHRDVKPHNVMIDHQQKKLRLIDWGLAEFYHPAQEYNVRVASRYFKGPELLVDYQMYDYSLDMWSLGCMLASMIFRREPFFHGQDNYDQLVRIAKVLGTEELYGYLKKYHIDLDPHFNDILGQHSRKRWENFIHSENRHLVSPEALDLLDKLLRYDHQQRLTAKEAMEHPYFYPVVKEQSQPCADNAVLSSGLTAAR

Sequence of Cyclin-dependent kinase-like 1 (Homo sapiens) (Q00532 whole entry): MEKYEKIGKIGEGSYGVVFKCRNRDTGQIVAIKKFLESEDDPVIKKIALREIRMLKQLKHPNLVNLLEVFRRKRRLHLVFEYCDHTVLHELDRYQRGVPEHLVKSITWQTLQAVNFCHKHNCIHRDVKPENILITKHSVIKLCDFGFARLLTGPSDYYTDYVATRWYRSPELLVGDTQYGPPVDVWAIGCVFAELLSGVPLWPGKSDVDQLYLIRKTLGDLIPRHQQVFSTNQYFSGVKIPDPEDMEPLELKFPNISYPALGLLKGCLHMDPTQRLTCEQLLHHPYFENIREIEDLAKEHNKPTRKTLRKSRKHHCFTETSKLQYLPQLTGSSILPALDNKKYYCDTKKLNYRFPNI
Sequence of 5-hydroxytryptamine receptor 1A (Homo sapiens) (P08908 whole entry): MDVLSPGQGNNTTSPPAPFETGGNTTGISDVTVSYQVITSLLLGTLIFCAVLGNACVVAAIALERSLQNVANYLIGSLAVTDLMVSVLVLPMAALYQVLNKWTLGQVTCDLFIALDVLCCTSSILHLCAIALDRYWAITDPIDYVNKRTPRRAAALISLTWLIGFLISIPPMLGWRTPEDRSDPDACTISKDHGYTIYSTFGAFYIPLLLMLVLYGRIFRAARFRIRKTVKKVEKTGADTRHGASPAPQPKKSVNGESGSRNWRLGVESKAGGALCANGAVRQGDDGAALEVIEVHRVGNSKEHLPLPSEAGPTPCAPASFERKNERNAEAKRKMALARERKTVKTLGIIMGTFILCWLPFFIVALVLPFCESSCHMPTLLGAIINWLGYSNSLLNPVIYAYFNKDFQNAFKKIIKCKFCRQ
Sequence of Serine/threonine-protein kinase ULK1 (Homo sapiens) (O75385 whole entry): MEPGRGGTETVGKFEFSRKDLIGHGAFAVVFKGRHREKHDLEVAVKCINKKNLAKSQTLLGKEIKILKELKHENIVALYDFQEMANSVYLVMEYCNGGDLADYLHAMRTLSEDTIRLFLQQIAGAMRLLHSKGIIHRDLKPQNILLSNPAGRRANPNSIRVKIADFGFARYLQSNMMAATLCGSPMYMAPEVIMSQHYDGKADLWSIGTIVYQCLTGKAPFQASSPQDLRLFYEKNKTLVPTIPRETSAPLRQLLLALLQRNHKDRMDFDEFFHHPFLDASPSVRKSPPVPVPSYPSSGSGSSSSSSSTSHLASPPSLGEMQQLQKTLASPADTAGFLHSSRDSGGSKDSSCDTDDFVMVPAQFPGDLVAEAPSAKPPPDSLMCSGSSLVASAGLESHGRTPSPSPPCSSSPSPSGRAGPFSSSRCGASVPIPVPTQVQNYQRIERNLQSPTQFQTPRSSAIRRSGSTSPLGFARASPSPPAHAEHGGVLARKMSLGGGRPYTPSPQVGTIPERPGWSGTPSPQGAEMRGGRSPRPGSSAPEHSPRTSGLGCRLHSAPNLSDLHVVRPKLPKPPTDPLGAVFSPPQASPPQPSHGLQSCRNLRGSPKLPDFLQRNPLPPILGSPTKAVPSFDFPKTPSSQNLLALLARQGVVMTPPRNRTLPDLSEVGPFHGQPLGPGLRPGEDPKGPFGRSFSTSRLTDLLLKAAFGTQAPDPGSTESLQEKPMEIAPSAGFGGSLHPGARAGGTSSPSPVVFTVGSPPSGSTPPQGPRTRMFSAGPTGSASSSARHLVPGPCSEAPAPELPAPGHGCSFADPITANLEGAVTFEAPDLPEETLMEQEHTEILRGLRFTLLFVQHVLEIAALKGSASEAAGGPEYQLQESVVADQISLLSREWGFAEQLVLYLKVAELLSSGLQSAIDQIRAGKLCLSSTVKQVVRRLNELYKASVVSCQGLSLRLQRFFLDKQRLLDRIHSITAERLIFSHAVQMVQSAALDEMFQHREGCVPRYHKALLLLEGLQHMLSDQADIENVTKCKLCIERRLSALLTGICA
Sequence of D(1A) dopamine receptor (Homo sapiens) (P21728 whole entry): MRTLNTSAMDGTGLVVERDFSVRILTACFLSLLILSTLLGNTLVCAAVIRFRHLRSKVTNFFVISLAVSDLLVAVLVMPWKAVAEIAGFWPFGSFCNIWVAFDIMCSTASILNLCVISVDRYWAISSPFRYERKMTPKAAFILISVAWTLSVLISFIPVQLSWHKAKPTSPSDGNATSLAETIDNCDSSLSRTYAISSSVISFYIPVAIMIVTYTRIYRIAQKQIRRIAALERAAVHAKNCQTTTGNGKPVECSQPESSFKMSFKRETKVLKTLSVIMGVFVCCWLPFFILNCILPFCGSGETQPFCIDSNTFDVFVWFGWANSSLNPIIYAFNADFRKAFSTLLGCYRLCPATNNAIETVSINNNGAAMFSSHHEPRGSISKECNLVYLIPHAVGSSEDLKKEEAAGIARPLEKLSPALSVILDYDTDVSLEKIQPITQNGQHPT

C[C@@H]1CN(c2ncc(Cl)c(Nc3ccc4c(c3)n(CCC(C)(C)O)c(=O)n4C)n2)C[C@H](C)C1(F)F
inactive: Tm [1] 41 °C | inhibition [2] 27.3% | Tm [3] 45 °C | inhibition [4] 5.99% | Tm [5] 43 °C
